Measurements as given in patent US20100273206A1, “DIAGNOSTIC IN VITRO METHOD FOR ASSESSING VON WILLEBRAND DISEASE AND INCREASED BLEEDING RISK ASSOCIATED WITH VON WILLEBRAND DISEASE AND ACQUIRED OR CONGENITAL DISORDERS OF PLATELET FUNCTION” (priority 2007, published 2010).

Assays:
VWD type 1 patients = assay: In vivo therapy control (DDAVP); parameters: species or system human; conditions: three VWD type 1 patients; before, 30 min and 180 min after DDAVP
Text: Therapy in VWD may be necessary to alleviate a bleeding episode or to prevent bleeding episode. Most individuals with type 1 VWD generally are managed effectively using DDAVP (Desmopressin acetate), which acts to release endogenous stored VWF. It is usual to conduct a trial of DDAVP and then monitor the response by subsequent blood sampling and testing. […] The method is a simple and rapid tool to discriminate responders from nonresponders to DDAVP. The advantage of this method is the close to immediate test time obtained. The result is available very soon after blood sampling. In contrast the VWF:CB result is generally obtained some days after blood sampling. The values for the amplitude ratio, the VWF:Ag and VWF-RCo are shown in figure 7 for three time points (before, 30 min after and 180 min after administration of DDAVP).

[1] = tested on: citrate-stabilized blood from a healthy patient; assay: TEG (Rotem) of kaolin-activated citrated blood incubated with increasing amounts of ristocetin; type: cell-based, human; conditions: 10 min incubation, increasing final ristocetin concentration (up to 1.05 mg/ml)
Method: Citrate-stabilized blood from a healthy patient was transferred to a vial containing a standardized kaolin reagent and mixed by inversion The kaolin reagent was purchased from Haemoscope Corporation. The mixture was mixed well and divided into two 500 μL aliquots. Different amounts of ristocetin at a concentration of 15 mg mL^−1 was added to one part of the activated blood aliquots and both samples were incubated on a mixer for 10 min. 300 μL of both aliquots were filled to TEG assay cups and 20 μL of 0.2 M CaCl2 were added. The TEG tracings were allowed to run as least until the maximal amplitude was reached using a Rotem Analyser. […] Dependent of the final ristocetin concentration a decrease of the maximal amplitude and an increase in the clotting time were observed.

[2] = tested on: citrate-stabilized blood (platelets and VWF); assay: TEG maximal amplitude with versus without ristocetin preincubation; type: cell-based, human; conditions: for maximal amplitude after ristocetin preincubation relative to maximal amplitude without preincubation: 25 μL of 15 mg/mL ristocetin per 500 μL, 10 min
Method: If TEG is the assay to determine the viscoelastic change the platelet activation in response to the activator of platelet aggregation for example ristocetin can by way of non limiting example be determined from the maximum amplitudes in the control without added platelet activator (MA) and the sample with the added platelet activator Ristocetin (MARistocetin): which can then be expressed as the ratio (MARistocetin/MA)*100. The percentage change is determined to assess individual subject's responses, thus providing an indication of relative response to a certain dose of ristocetin.
Analyser and the reagents were from Haemoscope Corporation. 1.3 mL of blood was collected in 3.18% trisodium citrate (1:9 anticoagulant to blood). One millilitre of citrate-stabilized blood was transferred to a vial containing a standardized kaolin reagent and mixed by inversion. The mixture was mixed well and divided into two 500 μL aliquots. 25 μL ristocetin at a concentration of 15 mg mL^−1 was added to one part of the activated blood aliquots and both samples were incubated on a mixer for 10 min. 360 μL of both aliquots were filled to TEG assay cups and 20 μL of 0.2 M CaCl2 were added. The TEG tracings were allowed to run as least until the maximal amplitude was reached.
According to the procedure in example 2 blood samples from healthy patients and patients with from VWD were tested. All VWD samples derived from patients diagnosed as having VWD using standard criteria. In addition to VWD plasma, a number of normal samples were also collected and used for comparative studies. The platelet activation in response to ristocetin is determined from the maximum amplitudes in the control (MA) and ristocetin activated trace (MARistocetin): MARicocetin/MA*100. The percentage change was calculated to assess individual subject's responses, thus providing an indication of relative response to a certain dose of ristocetin (0.71 mg/ml and 1,05 mg/ml final concentration). The Kaolin induced sample without adding ristocetin acted as the control measurement. […] Almost all platelets are deactivated and no more platelet contribution to the clot strength is detectable.

Compound | TEG ratio (maximal amplitude with ristocetin/without ristocetin)*100 (VWD type 1 patients) | VWF:Ag (VWD type 1 patients) | ristocetin cofactor activity (VWD type 1 patients) | clotting time [1] | maximal amplitude [1] | maximal amplitude after ristocetin preincubation relative to maximal amplitude without preincubation ([2]; blood from a VWD type 1 patient) | maximal amplitude after ristocetin preincubation relative to maximal amplitude without preincubation ([2]; blood from a VWD type 3 patient) [%] | maximal amplitude after ristocetin preincubation relative to maximal amplitude without preincubation ([2]; normal blood) | clot strength after ristocetin incubation ([2]; patients with VWD, 0.71 mg/ml and 1,05 mg/ml final concentration) | maximum amplitude after incubation with ristocetin ([2]; patients without VWD, 0.71 mg/ml and 1,05 mg/ml final concentration)
NC(=O)CC[C@@H]1NC(=O)[C@H](Cc2ccccc2)NC(=O)[C@H](Cc2ccc(O)cc2)NC(=O)CCSSC[C@@H](C(=O)N2CCC[C@H]2C(=O)N[C@H](CCCN=C(N)N)C(=O)NCC(N)=O)NC(=O)[C@H](CC(N)=O)NC1=O [DDAVP, Desmopressin acetate] | normalize | increase | increase | – | – | – | – | – | – | –
ristocetin | – | – | – | increase | decrease | about 75% | ~100 | about 20% | not or only slightly modified | significant decrease
